Patent US5591742A, “Pyridopyrimidinone antianginal agents” (Pfizer Inc., priority 1992, dated 1997)

Legend:
cGMP-inhibited cAMP PDE = molecular target: T1, cGMP-inhibited cAMP PDE (Oryctolagus cuniculus, UniProt G1ST54); experiment: PDE inhibition: cGMP-inhibited cAMP PDE from rabbit platelets; assay type: biochemical; settings: in vitro
T1 construct: from tissue; host or cells: rabbit platelets
T1 sequence (G1ST54 1-1128): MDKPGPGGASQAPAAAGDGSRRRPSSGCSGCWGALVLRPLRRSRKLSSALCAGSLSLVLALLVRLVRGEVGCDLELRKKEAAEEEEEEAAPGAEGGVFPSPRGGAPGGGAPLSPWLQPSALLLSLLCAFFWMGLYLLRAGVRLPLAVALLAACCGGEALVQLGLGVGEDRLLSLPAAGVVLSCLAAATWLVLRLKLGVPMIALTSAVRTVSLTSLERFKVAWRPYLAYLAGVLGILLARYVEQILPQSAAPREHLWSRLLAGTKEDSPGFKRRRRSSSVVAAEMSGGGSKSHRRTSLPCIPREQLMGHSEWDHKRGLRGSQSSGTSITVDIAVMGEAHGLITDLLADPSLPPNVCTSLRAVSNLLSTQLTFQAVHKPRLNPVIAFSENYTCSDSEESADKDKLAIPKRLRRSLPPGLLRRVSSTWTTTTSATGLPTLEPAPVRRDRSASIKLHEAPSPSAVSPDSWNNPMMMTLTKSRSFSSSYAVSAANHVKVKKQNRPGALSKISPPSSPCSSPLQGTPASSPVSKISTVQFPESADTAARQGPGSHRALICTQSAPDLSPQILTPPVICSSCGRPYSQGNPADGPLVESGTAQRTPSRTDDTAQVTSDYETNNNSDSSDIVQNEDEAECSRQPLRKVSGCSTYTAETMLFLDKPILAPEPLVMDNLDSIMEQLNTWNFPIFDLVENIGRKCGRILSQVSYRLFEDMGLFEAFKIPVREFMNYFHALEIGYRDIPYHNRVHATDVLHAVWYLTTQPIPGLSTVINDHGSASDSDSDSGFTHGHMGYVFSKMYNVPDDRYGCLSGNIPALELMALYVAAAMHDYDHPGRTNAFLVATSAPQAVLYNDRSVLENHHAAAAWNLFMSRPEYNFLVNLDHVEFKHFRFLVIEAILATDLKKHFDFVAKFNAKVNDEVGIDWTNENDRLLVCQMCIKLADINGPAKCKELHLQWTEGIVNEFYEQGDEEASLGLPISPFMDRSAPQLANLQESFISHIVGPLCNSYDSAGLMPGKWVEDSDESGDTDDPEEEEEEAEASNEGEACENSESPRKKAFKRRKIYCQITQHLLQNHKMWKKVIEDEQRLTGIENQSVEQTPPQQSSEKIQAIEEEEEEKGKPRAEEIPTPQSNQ
Experimental: (§1) Phosphodiesterase activity
(§2) Compound affinities for cGMP and cAMP PDEs are assessed by determination of their IC50 values (the concentration of inhibitor required for 50% inhibition of enzyme activity). The PDE enzymes are isolated from rabbit platelets and rat kidney, essentially by the method of W. J. Thompson et al. (Biochem., 1971, 10, 311). The calcium/calmodulin (Ca/CAM)--independent cGMP PDE and the cGMP-inhibited cAMP PDE enzymes are obtained from rabbit platelets whilst, of the four major PDE enzymes of the rat kidney, the Ca/CAM-dependent cGMP PDE (fraction I) is isolated. Assays are performed using a modification of the "batch" method of W. J. Thompson and M. M. Appleman (Biochem., 1979, 18, 5228).

[1] = Safety profile in rabbit (i.v. or i.d.); assay type: in vivo
[2] = molecular target: T2, calcium/calmodulin (Ca/CAM)-independent cGMP PDE (Oryctolagus cuniculus, UniProt G1SX67); experiment: PDE inhibition: Ca/CAM-independent cGMP PDE from rabbit platelets; assay type: biochemical; settings: Ca/CAM-independent cGMP PDE, rabbit platelets, in vitro
T2 construct: The PDE enzymes are isolated from rabbit platelets and rat kidney; from tissue; host or cells: rabbit platelets
Experimental: as §1, §2

[3] = tested on: calcium/calmodulin (Ca/CAM)-independent cGMP PDE; experiment: as above; assay type: biochemical; settings: IC50 cGMP-inhibited cAMP PDE / IC50 Ca/CAM-independent cGMP PDE
Experimental: as §1, §2

Question: Which results are given for `CCCc1ccnc2c(=O)[nH]c(-c3cc(S(=O)(=O)NCCN4CCOCC4)ccc3OCC)nc12` [Example 1, 2-[2-Ethoxy-5-(2-morpholinoethylsulphamoyl)phenyl]-8-n-propylprido [3,2,d]pyrimidin-4 (3H) -one]?
Answer: IC50 (cGMP-inhibited cAMP PDE): 19000 nM; untoward effects ([1]; doses up to 3 mg/kg i.d.): no untoward effects being observed; IC50 [2]: 21 nM; SELECTIVITY RATIO [3]: 904

Question: With `CCCc1ccnc2c(=O)[nH]c(-c3cc(S(=O)(=O)N4CCN(C)CC4)ccc3OCC)nc12` [Example 2, 2-[2-Ethoxy-5(4-methyl-l-piperazinylsulphonyl)phenyl]-8-n-propylrido [3,2-d]pyrimidin-4(3H)-one] as the molecule, how does the IC50 (cGMP-inhibited cAMP PDE) read?
Answer: 13000 nM

Question: What about the IC50 [2] of the same molecule?
Answer: 26 nM

Question: What about the “SELECTIVITY RATIO” value [3] of the same molecule?
Answer: 500

Question: For `CCCc1ccnc2c(=O)[nH]c(-c3cc(S(=O)(=O)N4CCNCC4)ccc3OCC)nc12` [Example 3, 2-[2-Ethoxy-5-(1-piperazinylsulphonyl]phenyl]-8-n-propylprido [3,2-d]pyrimidin-4(3H) -one], which untoward effects ([1]; doses up to 10 mg/kg i.d.) is on record?
Answer: no untoward effects being observed

Question: With `CCCc1ccnc2c(=O)[nH]c(-c3cc(S(=O)(=O)N4CCC(C(=O)OCC)CC4)ccc3OCC)nc12` [Example 4, 2-[2-Ethoxy-5-(4-ethoxycarbonylpiperidinosulphonyl)-phenyl]-8-n-propylprido[3,2-d]pyrimidin-4(3H) -one] as the molecule, how does the IC50 (cGMP-inhibited cAMP PDE) read?
Answer: 7600 nM

Question: And the IC50 [2]?
Answer: 5.6 nM

Question: And the “SELECTIVITY RATIO” value [3]?
Answer: 1,357

Question: With `CCCc1ccnc2c(=O)[nH]c(-c3cc(S(=O)(=O)N(C)CCC(=O)OCC)ccc3OCC)nc12` [Example 5, 2-[2 -Ethoxy-5-(N-2-ethoxycarbonylethyl-N-methyl-sulphamoyl)phenyl]-8-n-propylpyrido[3,2-d]pyrimidin-4(3H)-one] as the molecule, how does the IC50 (cGMP-inhibited cAMP PDE) read?
Answer: 8300 nM

Question: And the IC50 [2]?
Answer: 14 nM

Question: And the “SELECTIVITY RATIO” value [3]?
Answer: 592

Question: For `CCCc1ccnc2c(=O)[nH]c(-c3cc(S(=O)(=O)N4CCN(CCO)CC4)ccc3OCC)nc12` [Example 7, 2-{2-Ethoxy-5-[4-(2-hydroxyethyl)-1-piperazinyl-sulphony]phenyl}-8-n-propylprido[3.2-d]pyrimidin-4(3H)-one], which IC50 (cGMP-inhibited cAMP PDE) is on record?
Answer: 11000 nM

Question: What about the untoward effects ([1]; doses up to 0.1 mg/kg i.v.) of the same molecule?
Answer: no untoward effects being observed

Question: And the IC50 [2]?
Answer: 9.8 nM

Question: What about the “SELECTIVITY RATIO” value [3] of the same molecule?
Answer: 1,122

Question: Which untoward effects ([1]; doses up to 3 mg/kg i.d.) does the source give for `CCCc1ccnc2c(=O)[nH]c(-c3cc(S(=O)(=O)NCCN4CCNC4=O)ccc3OCC)nc12` [Example 8, 2-{2-Ethoxy-5-[2-(1-imidazolidin-2-onyl)ethyl-sulphamoyl]phenyl}-8-n-propylprido[3,2-d]pryimidin-4 (3H)-one] here?
Answer: no untoward effects being observed

Question: Which IC50 (cGMP-inhibited cAMP PDE) does the source give for `CCCc1ccnc2c(=O)[nH]c(-c3cc(S(=O)(=O)N4CCC(C(=O)O)CC4)ccc3OCC)nc12` [Example 9, 2-[5-(4-Carboxypiperidinosulphonyl)-2-ethoxyphenyl]-8-n-propylprido [3,2-d]pyrimidin-4(3H)-one] here?
Answer: 220 nM

Question: And the untoward effects ([1]; doses up to 1 mg/kg i.v.)?
Answer: no untoward effects being observed

Question: And the IC50 [2]?
Answer: 1.2 nM

Question: And the “SELECTIVITY RATIO” value [3]?
Answer: 183

Question: What does the source list for `CCCc1ccnc2c(=O)[nH]c(-c3cc(NS(=O)(=O)c4cccnc4)ccc3OCC)nc12` [Example 12A, 2-[2-Ethoxy-5-(3-pyridylsulphonylamino)phenyl]-8-n-propylpyrido [3,2-d]pyrimidin-4(3H) -one]?
Answer: IC50 (cGMP-inhibited cAMP PDE): 4600 nM; IC50 [2]: 19 nM; SELECTIVITY RATIO [3]: 242

Question: With `CCOc1ccc(S(=O)(=O)N2CCN(C)CC2)cc1-c1nc2c(C#N)ccnc2c(=O)[nH]1` [Example 24, 8-Cyano-2-[2-ethoxy-5-(4-methyl-1-piperazinyl-sulphonyl)phenyl]pyrido[3,2d]pyrimidin-4(3H)-one] as the molecule, how does the IC50 (cGMP-inhibited cAMP PDE) read?
Answer: > 100000 nM

Question: And the IC50 [2]?
Answer: 25 nM

Question: And the “SELECTIVITY RATIO” value [3]?
Answer: > 4,000
